Experimental data as given in patent US10464927B2, “2,4-disubstituted pyrimidines as CDK inhibitors” (Shanghai Xunhe Pharmaceutical Technology Co. Ltd., priority 2016, dated 2019).

Columns and labels:
[1] = biological target: CDK6 (Homo sapiens (Human), UniProt Q00534); test: CDK6 protein kinase activity, Caliper mobility shift assay; assay type: biochemical; details: GST-CDK6(1-326 end), substrate Peptide FAM-P8, 28° C. for 3 h
Description: (§1) Activity Assay: The CDK6 protein kinase activity was measured using the Caliper mobility shift assay (see J. Biomol. Screen, 2009, PP31). The test compound was dissolved in DMSO and diluted with a kinase buffer solution (20 mM HEPES-pH 7.5, 0.01% Triton X-100, 10 mM MgCl2, 2 mM DTT) and 5 μL of compound at 5-fold final concentration of reaction dissolved in 10% DMSO was added in a 384-well plate. The compound-free control well was 5 μL of 10% DMSO, and the no-activity control well was 5 μL of kinase buffer. 10 μL of a 2.5-fold diluted CDK6 enzyme solution (GST-CDK6(1-326 end)) was added and incubated at room temperature for 10 min, and then 10 μL of the 2.5-fold diluted substrate solution Peptide FAM-P8 was added. The reaction was stopped by adding 25 μL of stop solution after incubation at 28° C. for 3 h, and the conversion rate data was read on a Caliper EZ Reader II (Caliper Life Sciences) and the conversion rate was converted to inhibition rate data according to above method. Among them, the inhibition rate %=(max−conversion)/(max−min)×100%.

[2] = biological target: CDK4 (Homo sapiens (Human), UniProt P11802); test: CDK4 protein kinase activity, Caliper mobility shift assay; assay type: biochemical; details: GST-CDK4(1-303 end), substrate Peptide FAM-P8, 28° C. for 3 h
Description: as §1, with “activity assay:” for “Activity Assay:”, “CDK4” for “CDK6”, “(GST-CDK4(1-303” for “(GST-CDK6(1-326”

Chain of CDK6 (Q00534 whole entry): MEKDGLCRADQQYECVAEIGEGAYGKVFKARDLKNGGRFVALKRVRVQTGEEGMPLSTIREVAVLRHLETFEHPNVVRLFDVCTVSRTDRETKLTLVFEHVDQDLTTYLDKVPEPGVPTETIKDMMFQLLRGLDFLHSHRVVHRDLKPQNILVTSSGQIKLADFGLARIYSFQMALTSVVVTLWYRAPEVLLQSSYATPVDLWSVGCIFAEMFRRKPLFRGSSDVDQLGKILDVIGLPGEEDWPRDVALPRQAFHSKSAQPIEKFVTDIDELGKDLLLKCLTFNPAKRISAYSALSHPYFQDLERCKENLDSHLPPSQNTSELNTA
Chain of CDK6 (P30281 whole entry partner): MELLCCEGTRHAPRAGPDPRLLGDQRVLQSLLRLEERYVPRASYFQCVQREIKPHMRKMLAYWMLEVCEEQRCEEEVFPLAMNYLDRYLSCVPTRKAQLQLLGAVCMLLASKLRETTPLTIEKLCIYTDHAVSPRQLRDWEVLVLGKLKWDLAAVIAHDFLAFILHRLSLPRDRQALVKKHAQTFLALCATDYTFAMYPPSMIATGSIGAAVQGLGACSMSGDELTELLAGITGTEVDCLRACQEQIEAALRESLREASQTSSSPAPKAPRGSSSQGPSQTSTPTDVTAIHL
Chain of CDK4 (P11802 whole entry): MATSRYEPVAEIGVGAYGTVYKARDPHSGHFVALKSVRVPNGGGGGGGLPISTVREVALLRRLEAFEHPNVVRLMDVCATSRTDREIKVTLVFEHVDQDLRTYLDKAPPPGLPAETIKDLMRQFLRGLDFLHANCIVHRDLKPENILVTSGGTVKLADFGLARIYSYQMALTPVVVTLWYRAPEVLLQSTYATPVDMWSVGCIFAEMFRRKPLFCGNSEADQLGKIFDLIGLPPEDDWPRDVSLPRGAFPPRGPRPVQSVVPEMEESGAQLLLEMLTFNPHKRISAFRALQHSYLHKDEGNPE
Chain of CDK4 (P30281 whole entry partner): as the sequence (P30281 whole entry partner) above

Structure (SMILES)	IC50 [1] [µM]	IC50 [2] [µM]
CC(C)n1c(C(=O)N(C)C)c(F)c2c(-c3nc(Nc4ccc(N5CCNCC5)cn4)ncc3F)ncnc21 [Compound I-10, N-(5-(piperazin-1-yl)-pyridin-2-yl)-5-fluoro-4-(5-fluoro-6-formic acid diformamido-7-isopropyl-7H-pyrrolo[2,3-d]pyrimidin-4-yl)pyrimidin-2-amine]	0.02 to 0.1	≤ 0.02
CCN1CCN(Cc2ccc(Nc3ncc(F)c(-c4ccc5ncc(C#N)n5c4)n3)nc2)CC1 [Compound I-34, N-(5-(4-ethylpiperazine-1-methyl)-pyridin-2-yl)-5-fluoro-4-(3-cyano-imidazo[1,2-a]pyridin-6-yl)pyrimidin-2-amine]	≤ 0.02	≤ 0.02
CC(C)n1c(C2CCCC2)cc2cc(-c3nc(Nc4ccc(N5CCN(C6CCC6)CC5)cn4)ncc3F)ccc21 [Compound I-21, N-(5-(4-cyclobutylpiperazin-1-yl)-pyridin-2-yl)-5-fluoro-4-(1-isopropyl-2-cyclopentyl-1H-indol-5-yl)pyrimidin-2-amine]	0.02 to 0.1	≤ 0.02
CCN1CCN(Cc2ccc(Nc3ncc(F)c(-c4ncnc5c4cc(C(C)=O)n5C4CC4)n3)nc2)CC1 [Compound I-41, N-(5-(4-ethylpiperazine-1-methyl)-pyridin-2-yl)-5-fluoro-4-(6-acetyl-7-cyclopropyl-7H-pyrrolo[2,3-d]pyrimidin-4-yl)pyrimidin-2-amine]	≤ 0.02	≤ 0.02
CN(C)C(=O)c1nn(C2CCCC2)c2ccc(-c3nc(Nc4ccc(N5CCNCC5)cn4)ncc3F)cc12 [Compound I-43, N-(5-(piperazin-1-yl)-pyridin-2-yl)-5-fluoro-4-(1-cyclopentyl-3-formic acid diformamido-1H-indazol-5-yl)pyrimidin-2-amine]	≤ 0.02	≤ 0.02
CCN1CCN(Cc2ccc(Nc3ncc(F)c(-c4ncnc5c4cc(C)n5C4CCCC4)n3)nc2)CC1 [Compound I-11, N-(5-(4-ethylpiperazine-1-methyl)-pyridin-2-yl)-5-fluoro-4-(6-methyl-7-cyclopentyl-7H-pyrrolo[2,3-d]pyrimidin-4-yl)pyrimidin-2-amine]	0.1 to 0.5	≤ 0.02
CC(C)n1c(C(=O)N(C)C)cc2c(F)c(-c3nc(Nc4ccc(N5CCNCC5)cn4)ncc3F)ccc21 [Compound I-28, N-(5-(piperazin-1-yl)-pyridin-2-yl)-5-fluoro-4-(1-isopropyl-2-formic acid diformamido-1H-4-fluoroindol-5-yl)pyrimidin-2-amine]	0.02 to 0.1	≤ 0.02
Fc1cnc(Nc2ccc(CN3CCN(C4CCCCCC4)CC3)cn2)nc1-c1ccc2c(c1)c(C1CC1)cn2C1CCC1 [Compound I-18, N-(5-(4-cycloheptylpiperazine-1-methyl)-pyridin-2-yl)-5-fluoro-4-(1-cyclobutyl-3-cyclopropyl-1H-indol-5-yl)pyrimidin-2-amine]	≤ 0.02	≤ 0.02
CCN1CCN(Cc2ccc(Nc3ncc(F)c(-c4ccc5nnc(C(C)C)n5c4)n3)nc2)CC1 [Compound I-6, N-(5-(4-ethylpiperazine-1-methyl)-pyridin-2-yl)-5-fluoro-4-(3-isopropyl-[1,2,4]triazolo[4,3-a]pyridin-6-yl)pyrimidin-2-amine]	0.02 to 0.1	≤ 0.02
CN(C)C(=O)c1cc2cc(-c3nc(Nc4ccc(N5CCNCC5)cn4)ncc3F)ccc2n1C1CCCC1 [Compound I-14, N-(5-(piperazin-1-yl)-pyridin-2-yl)-5-fluoro-4-(1-cyclopentyl-2-formic acid diformamido-1H-indol-5-yl)pyrimidin-2-amine]	≤ 0.02	≤ 0.02
Fc1cnc(Nc2ccc(CN3CCN(C4CCCCC4)CC3)cn2)nc1-c1ccc2c(c1)c(C1CCC1)cn2C1CCCCC1 [Compound I-19, N-(5-(4-cyclohexylpiperazin-1-methyl)-pyridin-2-yl)-5-fluoro-4-(1-cyclohexyl-3-cyclobutyl-1H-indol-5-yl)pyrimidin-2-amine]	> 0.5	≤ 0.02
CCN1CCN(Cc2ccc(Nc3ncc(F)c(-c4ccc5c(cc(C(=O)N(C)C)n5C(C)C)n4)n3)nc2)CC1 [Compound I-26, N-(5-(4-ethylpiperazine-1-methyl)-pyridin-2-yl)-5-fluoro-4-(1-isopropyl-2-formic acid diformamido-1H-4-azaindol-5-yl)pyrimidin-2-amine]	0.02 to 0.1	≤ 0.02
CCN1CCN(Cc2ccc(Nc3ncc(F)c(-c4ccc5c(n4)c(C(F)(F)F)nn5C4CCCC4)n3)nc2)CC1 [Compound I-46, N-(5-(4-ethylpiperazine-1-methyl)-pyridin-2-yl)-5-fluoro-4-(1-cyclopentyl-3-trifluoromethyl-4-aza-1H-indazol-5-yl)pyrimidin-2-amine]	0.02 to 0.1	0.02 to 0.1
Cc1nc2cnc(-c3nc(Nc4ccc(N5CCN(C)CC5)cn4)ncc3F)nc2n1C(C)C [Compound I-47, N-(5-(4-methylpiperazin-1-yl)-pyridin-2-yl)-5-fluoro-4-(9-isopropyl-8-methyl-9H-purin-2-yl)pyrimidin-2-amine]	0.02 to 0.1	≤ 0.02
CC(=O)c1nc2cnc(-c3nc(Nc4ccc(CN5CCN(C)CC5)cn4)ncc3F)nc2n1C(C)C [Compound I-38, N-(5-(4-methylpiperazine-1-methyl)-pyridin-2-yl)-5-fluoro-4-(9-isopropyl-8-acetyl-9H-purin-2-yl)pyrimidin-2-amine]	≤ 0.02	≤ 0.02
CCN1CCN(Cc2ccc(Nc3ncc(F)c(-c4ccc5c(c4)cc(C(=O)N(C)C)n5C4CCCC4)n3)nc2)CC1 [Compound I-22, N-(5-(4-ethylpiperazine-1-methyl)-pyridin-2-yl)-5-fluoro-4-(1-cyclopentyl-2-formic acid diformamido-1H-indol-5-yl)pyrimidin-2-amine]	≤ 0.02	≤ 0.02
CCN1CCN(Cc2ccc(Nc3ncc(F)c(-c4ncc5nc(C(=O)N(C)C)n(C)c5n4)n3)nc2)CC1 [Compound I-40, N-(5-(4-ethylpiperazin-1-methyl)-pyridin-2-yl)-5-fluoro-4-(9-methyl-8-formic acid diformamido-9H-purin-2-yl)pyrimidin-2-amine]	≤ 0.02	≤ 0.02
CCN1CCN(Cc2ccc(Nc3ncc(F)c(-c4ccc5c(ccn5C(C)C)c4)n3)nc2)CC1 [Compound I-1, N-(5-(4-ethylpiperazine-1-methyl)-pyridin-2-yl)-5-fluoro-4-(1-isopropyl-1H-indol-5-yl)-pyrimidin-2-amine]	≤ 0.02	≤ 0.02
Cc1c2ccc(-c3nc(Nc4ccc(N5CCNCC5)cn4)ncc3F)cc2nn1C [Compound I-5, N-(5-(piperazin-1-yl)-pyridin-2-yl)-5-fluoro-4-(2,3-dimethyl-2H-indazol-6-yl)pyrimidin-2-amine]	≤ 0.02	≤ 0.02
CCN1CCN(Cc2ccc(Nc3ncc(F)c(-c4ccc5c(cc(C(=O)N(C)C)n5C(C)C)c4F)n3)nc2)CC1 [Compound I-27, N-(5-(4-ethylpiperazine-1-methyl)-pyridin-2-yl)-5-fluoro-4-(1-isopropyl-2-formic acid diformamido-1H-4-fluoroindol-5-yl)pyrimidin-2-amine]	≤ 0.02	≤ 0.02
CCN1CCN(Cc2ccc(Nc3ncc(F)c(-c4ccc5nnc(C6CC6)n5c4)n3)nc2)CC1 [Compound I-36, N-(5-(4-ethylpiperazin-1-methyl)-pyridin-2-yl)-5-fluoro-4-(3-cyclopropyl-[1,2,4]triazolo[4,3-a]pyridin-6-yl)pyrimidin-2-amine]	≤ 0.02	≤ 0.02
CCC(CC)n1c(C(C)=O)cc2cc(-c3nc(Nc4ccc(CN5CCN(C)CC5)cn4)ncc3Cl)ccc21 [Compound I-15, N-(5-(4-methylpiperazine-1-methyl)-pyridin-2-yl)-5-chloro-4-(1-(3-pentyl)-2-acetyl-1H-indol-5-yl)pyrimidin-2-amine]	0.02 to 0.1	0.1 to 0.5
CC(C)n1ccc2cc(-c3nc(Nc4ccc(N5CCNCC5)cn4)ncc3F)ccc21 [Compound I-2, N-(5-(piperazin-1-yl)-pyridin-2-yl)-5-fluoro-4-(1-isopropyl-1H-indol-5-yl)pyrimidine 2-amine]	≤ 0.02	≤ 0.02
CCN1CCN(Cc2ccc(Nc3ncc(F)c(-c4ncc5nc(C)n(C(C)C)c5n4)n3)nc2)CC1 [Compound I-9, N-(5-(4-ethylpiperazine-1-methyl)-pyridin-2-yl)-5-fluoro-4-(9-isopropyl-8-methyl-9H-purin-2-yl)pyrimidin-2-amine]	0.02 to 0.1	0.02 to 0.1
